Experimental data reported in the supplement of paper PMC10307832.

Experiments:
Test in all cases: relative viability (nuclei count vs DMSO), 5 days (fraction); higher = more cells survive
Axitinib + Phenformin = compound: CNC(=O)c1ccccc1Sc1ccc2c(/C=C/c3ccccn3)n[nH]c2c1 [Axitinib] + N=C(N)NC(=N)NCCc1ccccc1 [Phenformin] (partner 250 µM)
In short: (§1)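 After 5 days of treatment, lung cancer cells in 1536-well plates were fixed and stained in a single step (final 0.05% Triton X-100, 1% formaldehyde, 1 ug/ml Hoechst) and their nuclei counted on 4× images. Treatment had been applied by pin tool the day after seeding as one drug alone or as a fixed anchor-drug dose with five library-drug doses (not always all listed) in √10 steps. Relative viability is the nuclei count of treated wells divided by that of vehicle wells, and values are medians of duplicate plates.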

Bemcentinib + Trametinib = compound: Nc1nc(Nc2ccc3c(c2)CC[C@@H](N2CCCC2)CC3)nn1-c1cc2c(nn1)-c1ccccc1CCC2 [Bemcentinib] + CC(=O)Nc1cccc(-n2c(=O)n(C3CC3)c(=O)c3c(Nc4ccc(I)cc4F)n(C)c(=O)c(C)c32)c1 [Trametinib] (partner 0.02 µM)
In short: as §1

Bemcentinib + Alpelisib = compound: Nc1nc(Nc2ccc3c(c2)CC[C@@H](N2CCCC2)CC3)nn1-c1cc2c(nn1)-c1ccccc1CCC2 [Bemcentinib] + Cc1nc(NC(=O)N2CCC[C@H]2C(N)=O)sc1-c1ccnc(C(C)(C)C(F)(F)F)c1 [Alpelisib] (partner 2 µM)
In short: as §1

Bemcentinib + Vorinostat = compound: Nc1nc(Nc2ccc3c(c2)CC[C@@H](N2CCCC2)CC3)nn1-c1cc2c(nn1)-c1ccccc1CCC2 [Bemcentinib] + O=C(CCCCCCC(=O)Nc1ccccc1)NO [Vorinostat] (partner 1 µM)
In short: as §1

Cell Line: NCI-H650
- relative viability (Axitinib + Phenformin; first compound 0.005 µM): 0.462
- relative viability (Axitinib + Phenformin; first compound 0.01581 µM): 0.434
- relative viability (Axitinib + Phenformin; first compound 0.05 µM): 0.483
- relative viability (Axitinib + Phenformin; first compound 0.1581 µM): 0.424
- relative viability (Axitinib + Phenformin; first compound 0.5 µM): 0.471
- relative viability (Bemcentinib + Trametinib; first compound 0.04 µM): 1.08
- relative viability (Bemcentinib + Trametinib; first compound 0.1265 µM): 0.993
- relative viability (Bemcentinib + Trametinib; first compound 0.4 µM): 0.963
- relative viability (Bemcentinib + Trametinib; first compound 1.265 µM): 0.947
- relative viability (Bemcentinib + Trametinib; first compound 4 µM): 0.966
- relative viability (Bemcentinib + Alpelisib; first compound 0.04 µM): 1.01
- relative viability (Bemcentinib + Alpelisib; first compound 0.1265 µM): 1.38
- relative viability (Bemcentinib + Alpelisib; first compound 0.4 µM): 1.22
- relative viability (Bemcentinib + Alpelisib; first compound 1.265 µM): 0.974
- relative viability (Bemcentinib + Alpelisib; first compound 4 µM): 1.06
- relative viability (Bemcentinib + Vorinostat; first compound 0.04 µM): 0.353
- relative viability (Bemcentinib + Vorinostat; first compound 0.1265 µM): 0.442
- relative viability (Bemcentinib + Vorinostat; first compound 0.4 µM): 0.378
- relative viability (Bemcentinib + Vorinostat; first compound 1.265 µM): 0.374
- relative viability (Bemcentinib + Vorinostat; first compound 4 µM): 0.418
